Values quoted from earlier work in patent US20170298446A1, “BIOMARKERS OF BRUTON TYROSINE KINASE INHIBITOR RESISTANCE” (OHIO STATE INNOVATION FOUNDATION, priority 2014, published 2017).

Biological target: BTK (Homo sapiens, UniProt Q06187)
Sequence (Q06187 whole entry): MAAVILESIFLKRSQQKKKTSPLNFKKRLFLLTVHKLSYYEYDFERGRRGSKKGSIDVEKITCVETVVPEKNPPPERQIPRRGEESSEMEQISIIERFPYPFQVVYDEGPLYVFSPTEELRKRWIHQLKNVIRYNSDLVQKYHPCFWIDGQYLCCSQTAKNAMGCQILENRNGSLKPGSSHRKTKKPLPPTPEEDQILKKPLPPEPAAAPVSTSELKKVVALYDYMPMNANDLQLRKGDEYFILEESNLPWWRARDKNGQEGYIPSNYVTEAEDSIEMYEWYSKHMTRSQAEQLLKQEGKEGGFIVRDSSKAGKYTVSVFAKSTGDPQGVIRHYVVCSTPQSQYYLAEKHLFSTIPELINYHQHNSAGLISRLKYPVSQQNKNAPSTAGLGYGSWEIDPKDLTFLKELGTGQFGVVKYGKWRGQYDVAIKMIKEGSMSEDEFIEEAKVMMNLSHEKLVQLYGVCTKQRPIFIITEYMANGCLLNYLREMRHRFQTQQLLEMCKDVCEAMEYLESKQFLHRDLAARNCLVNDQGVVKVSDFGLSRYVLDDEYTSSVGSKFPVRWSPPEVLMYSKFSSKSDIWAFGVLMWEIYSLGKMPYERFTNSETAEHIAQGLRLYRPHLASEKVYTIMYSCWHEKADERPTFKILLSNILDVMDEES

selectivity for BTK: > 10 fold
SMILES: CC(C)(C)c1ccc(C(=O)Nc2cccc(-c3cn4ccnc4c(Nc4ccccc4)n3)c2)cc1 [CGI-560, 4-(tert-butyl)-N-(3-(8-(phenylamino)imidazo[1,2-a]pyrazin-6-yl)phenyl)benzamide]
